From patent publication US9999626B2, “Mineral amino-acid complexes of active agents” (Thetis Pharmaceuticals LLC, priority 2014, dated 2018)

Columns and labels:
[1] = set-up: species or system rats; conditions: rat, in vivo, po
Description: The results of a single dose, oral pharmacokinetic study in rats for a compound of Formula III (designated TP-252, Mg-Lys2-EPA2) are shown in Table 3 below. One of the parameters shown in […] is the area under the curve (AUC), which is the integral of a plot of concentration of drug in blood plasma against time. The AUC is proportional to the total amount of the active pharmaceutical agent (API) that reaches the blood circulation. In this example, the API (or analyte) is EPA. AUC and Cmax are given for the compound of Formula III, EPA free fatty acid (EPA FFA), and EPA ethyl ester (EPA EE). EPA ethyl ester is the FDA-approved form of EPA.

[2] = Physical Stability Study (proton NMR after storage exposed to air); format: physicochemical; conditions: room temperature
Description: FIG. 1: […] NMR spectrum of magnesium bis-lysinate bis-EPA taken on the day the compound was synthesized (upper trace) and 60 days later (lower trace) with the compound having been exposed to air at room temperature for the entire 60-day period.
Since the compounds of Formula IA and IB, and the compositions comprising same or mixtures of same, described herein are solids (not oils) and they are very stable against oxidative degradation of the fatty acid component, particularly when compared to the free fatty acid or fatty acid ester forms of the fatty acids, which are highly susceptible to oxidative degradation in their liquid forms and consequently tend to degrade when exposed to air or humidity. […] This is evidenced, for example by no significant change in physical properties, such as flow characteristics, or in chemical properties, as measured by NMR spectroscopy, following days of storage in an open vial at room temperature and standard humidity, for example following from about 7 to 14 days or up to 30, up to 60, or up to 90 days of storage.
The compounds of the invention are remarkably stable compared to omega-3 polyunsaturated free fatty acids, which typically show evidence of oxidative degradation with hours of exposure to atmospheric oxygen. […]

EPA delivered to the blood plasma compared with equivalent doses of EPA free fatty acid or EPA ethyl ester [1]: significantly more EPA | chemically stable (no evidence of oxidation or degradation by proton NMR) [2]: at least 60 days
Compound: CC/C=C\C/C=C\C/C=C\C/C=C\C/C=C\CCCC(=O)O.CC/C=C\C/C=C\C/C=C\C/C=C\C/C=C\CCCC(=O)O.NCCCC[C@H](N)C(=O)[O-].NCCCC[C@H](N)C(=O)[O-].[Mg+2] [TP-252, Magnesium Bis-Lysinate Bis-EPA Dihydrate]
